Experimental data as given in patent publication US5932618A, “Anti-viral agents and methods relating to the use thereof” (Signal Pharmaceuticals, Inc., priority 1996, dated 1999).

Key:
[1] = test system: HCMV pol promoter (pol-luc cells); experiment: Luciferase reporter assay in pol-luc cells 48 hours after HCMV infection; format: cell-based; conditions: 48 hours after infection with 3 pfu/cell HCMV, increasing amounts of compound in DMSO
Experimental: The Pol promoter sequence, from position -425 to +15, was amplified by PCR using cosmid pCM1058 (Peter Ghazal) as template. The primers are: 5'-[…]-3' (sense primer), and 5'-[…]-3' (antisense primer). These oligo primers introduced a HindIII restriction site at the 5' and 3' end of Pol promoter fragment. The HindIII digested PCR fragment was inserted into HindIII digested pGL2-basic luciferase reporter plasmid (Promega, Madison, Wis.). The promoter direction was determined and PCR fidelity of the promoter sequence was confirmed by sequencing.
(§1) B. Establishment of Stable Cell Lines
(§2) The HCMV permissive human glioblastoma cell line U373 MG was transfected with the constructs described above. […]
(§3) Cells were infected with HCMV (Towne strain, obtained from American Type Culture Collection, Rockville, Md.) at 5-10 pfu/cell. […] Plates were read immediately in a Packard TopCount™ (Packard, Hartford, Conn.). Clones showing high luciferase inducibility were further analyzed by PCR to ascertain the integrity of the reporter transcriptional unit integrated into the genomic DNA. […]
(§4) Cells are maintained in DMEM (Mediatech, Herndon, Va.) supplemented with 10% fetal bovine serum (Gemini Bioproducts, Inc., Calabasas, Calif.), 1% antimycotic/antibiotic (GIBCO, Baltimore, Md.) and 0.6 μg/mL G148 (GIBCO, Baltimore, Md.). […] Luciferase activity (luminescence) in each well is then measured using a Packard Topcount™. […]

[2] = test system: HCMV pp28 promoter (pp28-luc cells); experiment: Luciferase reporter assay in pp28-luc cells 48 hours after HCMV infection; format: cell-based; conditions: 48 hours after infection with 3 pfu/cell HCMV, increasing amounts of compound in DMSO
Excerpt: The pp28 promoter sequence, from position -609 to +106, was amplified by PCR using cosmid pCM1 (Peter Ghazal, Scripps Research Institute) as a template. The oligonucleotide primer sequences are:
These oligonucleotides primers introduced a KpnI restriction site at the 5'-end and a HindIII site at the 3'-end of the pp28 promoter fragment. Unique sites, KpnI and HindIII allowed directional cloning into the pGL2-basic luciferase reporter plasmid (Promega, Madison, Wis.), resulting in the pp28-luc promoter construct shown in FIG. 2. The PCR fidelity of the pp28 promoter sequence was confirmed by sequencing.
B. Establishment of Stable Cell Lines […]
as §3, §4

[3] = test system: MIEP viral immediate early promoter (MIEP-luc cells); experiment: Luciferase reporter assay in MIEP-luc cells 48 hours after HCMV infection; format: cell-based; conditions: 48 hours after infection with 3 pfu/cell HCMV, increasing amounts of compound in DMSO
Experimental: The MIEP promoter sequence, from position -1145 to +122, was amplified by PCR using plasmid pSE as a template. The primers are: 5'-[…]-3' (sense primer), and 5'[…]-3' (antisense primer). These oligo primers introduced a KpnI restriction site at the 5' and 3' end of MIEP promoter fragment. The KpnI digested PCR fragment was inserted into KpnI digested pGL2-basic luciferase reporter plasmid (Promega, Madison, Wis.). The promoter direction was determined and PCR fidelity of the promoter sequence was confirmed by sequencing.
as §1, §2, §3, §4

[4] = test system: β-actin cellular promoter (β-actin-luc cells); experiment: Luciferase reporter assay in β-actin-luc cells 48 hours after HCMV infection; format: cell-based; conditions: 48 hours after infection with 3 pfu/cell HCMV, increasing amounts of compound in DMSO
Experimental: This Example illustrates the use of the cell lines of Example 1 for identifying inhibitors of viral gene expression.
Cells are maintained in DMEM (Mediatech, Herndon, Va.) supplemented with 10% fetal bovine serum (Gemini Bioproducts, Inc., Calabasas, Calif.), 1% antimycotic/antibiotic (GIBCO, Baltimore, Md.) and 0.6 μg/mL G148 (GIBCO, Baltimore, Md.). Cells are seeded at 3×10^4 cells per well in flat-bottom, tissue culture treated 96-well plates (Corning, Corning, N.Y.) and incubated for about 18 hours in a 37° C. humidified environment. Appropriately diluted candidate modulators are then added directly to the media on cells to a final concentration of 10 μg/mL, and the plates incubated for 30 minutes at 37° C. HCMV (Towne strain, ATCC) is then added at 3 pfu/cell. Forty-eight hours post-infection, the cells are washed once with PBS (without Ca^++ and Mg^++) and lysed in the 96-well plate. An aliquot of the cell lysate is then transferred to a black 96-well plate (Packard, Hartford, Conn.) and luciferase assay reagent (Promega, Madison, Wis.) is added to the plate. Luciferase activity (luminescence) in each well is then measured using a Packard Topcount™. […]
This Example illustrates anti-viral activity of representative compounds of this invention as determined in accordance with Examples 1-4 above. […]

[5] = test system: HCMV viral DNA replication; experiment: Viral DNA replication determined by dot blot analysis in stable clones; format: cell-based, HCMV (Towne strain); conditions: in presence of PAA (200-400 μg/ml), three different stable clones, data not shown
Experimental: The response of the integrated reporter plasmids to HCMV infection was also examined in the presence and absence of the well characterized viral DNA inhibitor phosphonoacetic acid (PAA, Sigma, St. Louis, Mo., 99.7 purity). The results are presented in FIG. 7 (P-luc), FIG. 8 (pol-luc) and FIG. 9 (pp28-luc). Cells were seeded into a 96 well plate in G418 selection media. The following day, cells were treated in the absence (lanes 1 and 4, panels B and C) or presence of PAA at 200 μg/mL (lanes 2 and 5, panels B and C) and 400 μg/mL (lanes 3 and 6, panels B and C). Cells were then superinfected with HCMV at 10 pfu/cell. Forty-eight hours post-infection, cells were harvested and isolated for either mRNA preparation, protein lysates or the luciferase assay. Luciferase activity measured as described above is shown in panels A of FIGS. 7-9. Northern analyses were performed on mRNA using probes for luciferase, MIEP-, pol- or pp28-specific mRNA and beta-actin mRNA to quantitate the amount of mRNA in each lane (panels B). Protein lysates were used for western blot analysis using antibody specific against luciferase (panels C). […] Viral DNA replication in presence of PAA was inhibited by nearly 90 percent as determined by dot blot analysis in three different stable clones (data not shown). […]

[6] = test system: U373 MG cells; format: cell-based, human; conditions: PAA 200-400 μg/ml, MTS cytotoxicity assay, data not shown

Compound | inhibition of luciferase reporter expressed from the HCMV pol promoter [1] | inhibition of luciferase reporter expressed from the HCMV pp28 promoter [2] | inhibition of reporter gene expressed from the MIEP viral immediate early promoter [3] | inhibition of reporter gene expressed from the β-actin cellular promoter [4] | inhibition of viral DNA replication [5] [%] | toxicity to U373 MG cells [6]
COc1cc([N+](=O)[O-])ccc1NC(=O)c1cc(Cl)c2ccccc2c1O [compound (V)] | specific inhibition | specific inhibition | no inhibition | no inhibition | – | –
O=C(Nc1cccc([N+](=O)[O-])c1)c1cc(Cl)c2ccccc2c1O [compound (IV)] | specific inhibition | specific inhibition | no inhibition | no inhibition | – | –
O=C(O)CP(=O)(O)O [PAA, phosphonoacetic acid] | – | – | – | – | ~90 | not toxic
